Source: PubChem BioAssay AID248 (DTP/NCI, 2004)
Where “and” joins values, the source holds several entries; their conditions need not be identical. Equal entries are not always repeated. Inconclusive results and toxic doses are left out. Cut-off read from the data, not from the text of the source: active = T/C of 150% or more; inactive = T/C below 125%.

Tested on: L1210 leukemia ip in BDF1 mice, survival T/C
Assay: NCI In Vivo Anticancer Drug Screen. Data for tumor model L1210 Leukemia (intraperitoneal) in B6D2F1 (BDF1) mice
Conditions: endpoint: mean survival time, higher = longer survival
In short: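 Tumor was transplanted into mice, which were then dosed with test compound or vehicle alone. Survival was recorded for each group, and the treated figure was expressed relative to the control figure.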

[1] = dose: 100.0 mg/kg/injection, schedule: Q04DX003 (ip), vehicle: Klucel (hydroxypropylcellulose) (HPC)
[2] = dose: 100.0 mg/kg/injection, schedule: Q01DX009 (ip), vehicle: Klucel (hydroxypropylcellulose) (HPC)
[3] = dose: 200.0 mg/kg/injection, schedule: Q01DX009 (ip), vehicle: Klucel (hydroxypropylcellulose) (HPC)
[4] = dose: 200.0 mg/kg/injection, schedule: Q04DX003 (ip), vehicle: Klucel (hydroxypropylcellulose) (HPC)
[5] = dose: 400.0 mg/kg/injection, schedule: Q01DX009 (ip), vehicle: Klucel (hydroxypropylcellulose) (HPC)
[6] = dose: 50.0 mg/kg/injection, schedule: Q04DX003 (ip), vehicle: saline
[7] = dose: 100.0 mg/kg/injection, schedule: Q04DX003 (ip), vehicle: saline
[8] = dose: 200.0 mg/kg/injection, schedule: Q04DX003 (ip), vehicle: saline
[9] = dose: 100.0 mg/kg/injection, schedule: Q01DX001 (ip), vehicle: Klucel (hydroxypropylcellulose) (HPC)
[10] = dose: 200.0 mg/kg/injection, schedule: Q01DX001 (ip), vehicle: Klucel (hydroxypropylcellulose) (HPC)
[11] = dose: 400.0 mg/kg/injection, schedule: Q01DX001 (ip), vehicle: Klucel (hydroxypropylcellulose) (HPC)

Measured: T/C

COc1ccc(/C=C/c2nccc3ccccc23)cc1OC
inactive: dose: 50.0 mg/kg/injection, schedule: Q04DX002 (ip), vehicle: Klucel (hydroxypropylcellulose) (HPC) 105 % of control | dose: 100.0 mg/kg/injection, schedule: Q04DX002 (ip), vehicle: Klucel (hydroxypropylcellulose) (HPC) 102 % of control | dose: 200.0 mg/kg/injection, schedule: Q04DX002 (ip), vehicle: Klucel (hydroxypropylcellulose) (HPC) 96 % of control and 108 % of control | dose: 400.0 mg/kg/injection, schedule: Q04DX002 (ip), vehicle: Klucel (hydroxypropylcellulose) (HPC) 89 % of control

CN1CCN(c2ccccc2N)CC1
inactive: dose: 5.0 mg/kg/injection, schedule: Q04DX003 (ip), vehicle: saline 107 % of control | dose: 10.0 mg/kg/injection, schedule: Q04DX003 (ip), vehicle: saline 96 % of control | dose: 20.0 mg/kg/injection, schedule: Q04DX003 (ip), vehicle: saline 96 % of control

COC(=O)C1C2CC3c4[nH]c5cc(OC)ccc5c4CCN3CC2CC(OC2CCCCO2)C1OC (configuration not stated)
inactive: dose: 25.0 mg/kg/injection, schedule: Q04DX003 (ip), vehicle: Klucel (hydroxypropylcellulose) (HPC) 98 % of control | dose: 50.0 mg/kg/injection, schedule: Q04DX003 (ip), vehicle: Klucel (hydroxypropylcellulose) (HPC) 100 % of control | [1] 117 % of control

CCCCc1ccc(C(=O)c2ccccc2)c2c1C(=O)c1ccccc1C2=O
inactive: [2] 97 % of control | [1] 92 % of control | [3] 94 % of control | [4] 92 % of control | [5] 95 % of control | dose: 400.0 mg/kg/injection, schedule: Q04DX003 (ip), vehicle: Klucel (hydroxypropylcellulose) (HPC) 96 % of control

CCOC(=O)c1cnc(C)nc1Nc1ccccc1Cl
inactive: [6] 105 % of control | [7] 104 % of control | [8] 98 % of control and 108 % of control

COCCOC(C)C(=O)C(O)S(=O)(=O)O (configuration not stated)
inactive: dose: 500.0 mg/kg/injection, schedule: Q01DX Z (oral), vehicle: saline 86 % of control | dose: 1000.0 mg/kg/injection, schedule: Q01DX Z (oral), vehicle: saline 87 % of control

Cl/C(=C/C=C(c1ccccc1)c1ccccc1)c1ccccc1
inactive: dose: 100.0 mg/kg/injection, schedule: Q04DX002 (ip), vehicle: saline with Tween-80 88 % of control | dose: 200.0 mg/kg/injection, schedule: Q04DX002 (ip), vehicle: saline with Tween-80 88 % of control

O=[N+]([O-])c1cccc(-[n+]2cc([O-])on2)c1
inactive: dose: 50.0 mg/kg/injection, schedule: Q01DX009 (ip), vehicle: Klucel (hydroxypropylcellulose) (HPC) 94 % of control | [1] 105 % of control | [4] 96 % of control

COC(=O)C(=O)OC(=O)C(=O)OC
inactive: dose: 25.0 mg/kg/injection, schedule: Q04DX003 (ip), vehicle: saline 104 % of control | [6] 120 % of control | [7] 92 % of control

CC1(C)c2ccc([nH]2)C(C)(C)c2ccc([nH]2)C(C)(C)c2c[nH]cc2C(C)(C)c2ccc1[nH]2
inactive: dose: 100.0 mg/kg/injection, schedule: Q01DX001 (ip), vehicle: saline 102 % of control | dose: 200.0 mg/kg/injection, schedule: Q01DX001 (ip), vehicle: saline 94 % of control | dose: 400.0 mg/kg/injection, schedule: Q01DX001 (ip), vehicle: saline 97 % of control

COc1ccc(N=CC(=O)c2ccc(C)cc2)c([N+](=O)[O-])c1
inactive: [9] 107 % of control | [10] 104 % of control | [11] 95 % of control

O=[N+]([O-])c1ccc2c(c1)/C(=N\O)c1cc(Cl)c(Cl)cc1-2
inactive: dose: 100.0 mg/kg/injection, schedule: Q01DX001 (ip), vehicle: carboxymethylcellulose (CMC) 98 % of control | dose: 100.0 mg/kg/injection, schedule: Q04DX003 (ip), vehicle: acetone 94 % of control | dose: 200.0 mg/kg/injection, schedule: Q01DX001 (ip), vehicle: carboxymethylcellulose (CMC) 98 % of control | dose: 200.0 mg/kg/injection, schedule: Q04DX003 (ip), vehicle: acetone 100 % of control | dose: 400.0 mg/kg/injection, schedule: Q01DX001 (ip), vehicle: carboxymethylcellulose (CMC) 95 % of control | dose: 400.0 mg/kg/injection, schedule: Q04DX003 (ip), vehicle: acetone 96 % of control

O=S(=O)(O)c1ccc(/C2=c3\cc/c([n-]3)=C(\c3ccc(S(=O)(=O)O)cc3)c3ccc([n-]3)/C(c3ccc(S(=O)(=O)O)cc3)=c3/cc/c([n-]3)=C(\c3ccc(S(=O)(=O)O)cc3)c3ccc2[n-]3)cc1.[Co]
inactive: dose: 50.0 mg/kg/injection, schedule: Q01DX009 (ip), vehicle: saline 97 % of control | dose: 100.0 mg/kg/injection, schedule: Q01DX009 (ip), vehicle: saline 113 % of control

CCOC(=O)Nc1cc(N(C)CC(O)CN(C)c2ccccc2)c([N+](=O)[O-])c(N)n1 (configuration not stated)
inactive: [9] 101 % of control | [10] 104 % of control | [11] 97 % of control

CCON=C1C(C)(C)C(C)(C)C(C)(C)C1(C)C
inactive: [2] 98 % of control | [3] 95 % of control | [5] 96 % of control

CC(C)N=Cc1cc(Br)cc(Br)c1O.CC(C)N=Cc1cc(Br)cc(Br)c1O.[Co]
inactive: [7] 88 % of control | [8] 91 % of control | dose: 400.0 mg/kg/injection, schedule: Q04DX003 (ip), vehicle: saline 105 % of control
